Results as given in PubChem BioAssay AID1918933 (Molecular Pharmacology Branch, DTP, NCI, 2023).

Test system: 186277-243-T-J2-PDC complex spheroid viability
Experiment: Anticancer human tumor 186277-243-T-J2-PDC patient-derived colon adenocarcinoma cell line growth inhibition
Conditions: for IC50: curve of first compound; for viability, T/C: stronger effect = lower value
How it was run: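 Drug combinations with the LSD1 inhibitor iadademstat tested on tumor cells co-cultured as spheroids with endothelial cells and mesenchymal stem cells. Concentrations descended in half-log increments from clinical Cmax or 10 microM.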

[1] = second compound 0.1 µM, first compound 0.00316 µM
[2] = second compound 0.1 µM, first compound 0.01 µM
[3] = second compound 0.1 µM, first compound 0.0316 µM
[4] = second compound 0.1 µM, first compound 0.1 µM
[5] = second compound 0.316 µM, first compound 0.00316 µM
[6] = second compound 0.316 µM, first compound 0.01 µM
[7] = second compound 0.316 µM, first compound 0.0316 µM
[8] = second compound 0.316 µM, first compound 0.1 µM
[9] = second compound 1 µM, first compound 0.00316 µM
[10] = second compound 1 µM, first compound 0.01 µM
[11] = second compound 1 µM, first compound 0.0316 µM
[12] = second compound 1 µM, first compound 0.1 µM
[13] = second compound 3.16 µM, first compound 0.00316 µM
[14] = second compound 3.16 µM, first compound 0.01 µM
[15] = second compound 3.16 µM, first compound 0.0316 µM
[16] = second compound 3.16 µM, first compound 0.1 µM
[17] = second compound 10 µM, first compound 0.00316 µM
[18] = second compound 10 µM, first compound 0.01 µM
[19] = second compound 10 µM, first compound 0.0316 µM
[20] = second compound 10 µM, first compound 0.1 µM
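Also: 7 day exposure to compounds.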
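For viability, T/C in this document: 100% = DMSO vehicle control viability.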

Q: With `Cn1ncnc1C1c2n[nH]c(=O)c3cc(F)cc(c23)NC1c1ccc(F)cc1` (stereo not given) + NC1CCC(NC2CC2c2ccccc2)CC1 as the compound, how does the IC50 (second compound 0.1 µM) read?
A: > 100 nM

Q: And the IC50 (second compound 0.316 µM)?
A: > 100 nM

Q: And the IC50 (second compound 1 µM)?
A: > 100 nM

Q: What about the IC50 (second compound 3.16 µM) of the same compound?
A: > 100 nM

Q: What about the IC50 (second compound 10 µM) of the same compound?
A: > 100 nM

Q: What about the viability, T/C (second compound 0.1 µM, first compound 0.000316 µM) of the same compound?
A: 109%

Q: What about the viability, T/C (second compound 0.1 µM, first compound 0.001 µM) of the same compound?
A: 105%

Q: And the viability, T/C [1]?
A: 111%

Q: And the viability, T/C [2]?
A: 107%

Q: And the viability, T/C [3]?
A: 109%

Q: What about the viability, T/C [4] of the same compound?
A: 104%

Q: And the viability, T/C (second compound 0.316 µM, first compound 0.000316 µM)?
A: 113%

Q: What about the viability, T/C (second compound 0.316 µM, first compound 0.001 µM) of the same compound?
A: 107%

Q: What about the viability, T/C [5] of the same compound?
A: 109%

Q: What about the viability, T/C [6] of the same compound?
A: 108%

Q: What about the viability, T/C [7] of the same compound?
A: 103%

Q: And the viability, T/C [8]?
A: 96.8%

Q: What about the viability, T/C (second compound 1 µM, first compound 0.000316 µM) of the same compound?
A: 111%

Q: And the viability, T/C (second compound 1 µM, first compound 0.001 µM)?
A: 107%

Q: And the viability, T/C [9]?
A: 110%

Q: What about the viability, T/C [10] of the same compound?
A: 107%

Q: What about the viability, T/C [11] of the same compound?
A: 99.6%

Q: And the viability, T/C [12]?
A: 97.8%

Q: What about the viability, T/C (second compound 3.16 µM, first compound 0.000316 µM) of the same compound?
A: 109%

Q: And the viability, T/C (second compound 3.16 µM, first compound 0.001 µM)?
A: 99%

Q: What about the viability, T/C [13] of the same compound?
A: 109%

Q: What about the viability, T/C [14] of the same compound?
A: 103%

Q: What about the viability, T/C [15] of the same compound?
A: 99.3%

Q: What about the viability, T/C [16] of the same compound?
A: 104%

Q: What about the viability, T/C (second compound 10 µM, first compound 0.000316 µM) of the same compound?
A: 107%

Q: What about the viability, T/C (second compound 10 µM, first compound 0.001 µM) of the same compound?
A: 113%

Q: And the viability, T/C [17]?
A: 102%

Q: What about the viability, T/C [18] of the same compound?
A: 104%

Q: What about the viability, T/C [19] of the same compound?
A: 96%

Q: What about the viability, T/C [20] of the same compound?
A: 108%

Q: Which IC50 (second compound 0.1 µM) does the source give for `Nc1ncn(C2CC(O)C(CO)O2)c(=O)n1` (stereo not given) + NC1CC1c1ccc(-c2cccc(O)c2)cc1 here?
A: > 1000 nM

Q: What about the IC50 (second compound 0.316 µM) of the same compound?
A: > 1000 nM

Q: And the IC50 (second compound 1 µM)?
A: > 1000 nM

Q: What about the IC50 (second compound 3.16 µM) of the same compound?
A: > 1000 nM

Q: What about the IC50 (second compound 10 µM) of the same compound?
A: > 1000 nM

Q: And the viability, T/C [1]?
A: 108%

Q: What about the viability, T/C [2] of the same compound?
A: 103%

Q: What about the viability, T/C [3] of the same compound?
A: 112%

Q: What about the viability, T/C [4] of the same compound?
A: 106%

Q: And the viability, T/C (second compound 0.1 µM, first compound 0.316 µM)?
A: 148%

Q: What about the viability, T/C (second compound 0.1 µM, first compound 1 µM) of the same compound?
A: 159%

Q: And the viability, T/C [5]?
A: 100%

Q: And the viability, T/C [6]?
A: 102%

Q: And the viability, T/C [7]?
A: 114%

Q: And the viability, T/C [8]?
A: 138%

Q: What about the viability, T/C (second compound 0.316 µM, first compound 0.316 µM) of the same compound?
A: 143%

Q: What about the viability, T/C (second compound 0.316 µM, first compound 1 µM) of the same compound?
A: 150%

Q: And the viability, T/C [9]?
A: 104%

Q: What about the viability, T/C [10] of the same compound?
A: 109%

Q: What about the viability, T/C [11] of the same compound?
A: 107%

Q: And the viability, T/C [12]?
A: 119%

Q: What about the viability, T/C (second compound 1 µM, first compound 0.316 µM) of the same compound?
A: 137%

Q: What about the viability, T/C (second compound 1 µM, first compound 1 µM) of the same compound?
A: 157%

Q: And the viability, T/C [13]?
A: 100%

Q: What about the viability, T/C [14] of the same compound?
A: 95.5%

Q: What about the viability, T/C [15] of the same compound?
A: 97.3%

Q: What about the viability, T/C [16] of the same compound?
A: 121%

Q: And the viability, T/C (second compound 3.16 µM, first compound 0.316 µM)?
A: 140%

Q: And the viability, T/C (second compound 3.16 µM, first compound 1 µM)?
A: 162%

Q: And the viability, T/C [17]?
A: 110%

Q: And the viability, T/C [18]?
A: 107%

Q: What about the viability, T/C [19] of the same compound?
A: 98.6%

Q: And the viability, T/C [20]?
A: 112%

Q: And the viability, T/C (second compound 10 µM, first compound 0.316 µM)?
A: 124%

Q: What about the viability, T/C (second compound 10 µM, first compound 1 µM) of the same compound?
A: 148%

Q: What does the source list for `Nc1ccccc1NC(=O)c1ccc(CNC(=O)OCc2cccnc2)cc1` + NC1CCC(NC2CC2c2ccccc2)CC1?
A: IC50 (second compound 0.1 µM): 1410 nM; IC50 (second compound 0.316 µM): 1400 nM; IC50 (second compound 1 µM): 1520 nM; IC50 (second compound 3.16 µM): 1380 nM; IC50 (second compound 10 µM): 1390 nM; viability, T/C (second compound 0.1 µM, first compound 0.00949 µM): 112%; viability, T/C (second compound 0.1 µM, first compound 0.03 µM): 96.2%; viability, T/C (second compound 0.1 µM, first compound 0.0949 µM): 95.3%; viability, T/C (second compound 0.1 µM, first compound 0.3 µM): 110%; viability, T/C (second compound 0.1 µM, first compound 0.949 µM): 69.6%; viability, T/C (second compound 0.1 µM, first compound 3 µM): 12.5%; viability, T/C (second compound 0.316 µM, first compound 0.00949 µM): 112%; viability, T/C (second compound 0.316 µM, first compound 0.03 µM): 113%; viability, T/C (second compound 0.316 µM, first compound 0.0949 µM): 109%; viability, T/C (second compound 0.316 µM, first compound 0.3 µM): 96.5%; viability, T/C (second compound 0.316 µM, first compound 0.949 µM): 68.7%; viability, T/C (second compound 0.316 µM, first compound 3 µM): 13.5%; viability, T/C (second compound 1 µM, first compound 0.00949 µM): 112%; viability, T/C (second compound 1 µM, first compound 0.03 µM): 113%; viability, T/C (second compound 1 µM, first compound 0.0949 µM): 92.8%; viability, T/C (second compound 1 µM, first compound 0.3 µM): 107%; viability, T/C (second compound 1 µM, first compound 0.949 µM): 74.9%; viability, T/C (second compound 1 µM, first compound 3 µM): 13.7%; viability, T/C (second compound 3.16 µM, first compound 0.00949 µM): 118%; viability, T/C (second compound 3.16 µM, first compound 0.03 µM): 113%; viability, T/C (second compound 3.16 µM, first compound 0.0949 µM): 106%; viability, T/C (second compound 3.16 µM, first compound 0.3 µM): 108%; viability, T/C (second compound 3.16 µM, first compound 0.949 µM): 67.6%; viability, T/C (second compound 3.16 µM, first compound 3 µM): 12.8%; viability, T/C (second compound 10 µM, first compound 0.00949 µM): 106%; viability, T/C (second compound 10 µM, first compound 0.03 µM): 98.7%; viability, T/C (second compound 10 µM, first compound 0.0949 µM): 103%; viability, T/C (second compound 10 µM, first compound 0.3 µM): 93.4%; viability, T/C (second compound 10 µM, first compound 0.949 µM): 71.1%; viability, T/C (second compound 10 µM, first compound 3 µM): 8.04%
